Experimental data as given in patent US12662714B2, “Method for separation of adjacent lanthanide elements” (UT-Battelle, LLC, priority 2022, dated 2026).

Experiments:
[1] = REE(III)-HCl-EHEHPA system; cited from earlier work
Solubility = format: physicochemical
Text: The solubility of 1 in 0.9 M nitric acid (HNO3) is >0.2 M. The three DGAs selected for this study were: N,N′-dimethyl-N,N′-di(n-octyl)diglycolamide (DMDODGA, 3), N,N,N′,N′-tetra(n-octyl)diglycolamide (TODGA, 4), and N,N-didodecyl-2-((1-hexyl-2-oxopiperidin-3-yl)oxy)acetamide (DDHPA, 5), whose structures are shown above. […] However, they differ in terms of binding affinity for lanthanides in the order 3>4>5. The stability of DGA-Ln complexes is affected by the size of N-alkyl substituents on the DGA ligand; larger substituents tend to obstruct the metal ion binding site that is decorated with three oxygen donor groups, resulting in diminished affinity for Lns with lower effective nuclear charge. Ligand 2, with unconstrained amide groups, was synthesized as a control substrate.
However, its performance in separating Lns is very different.

[2] = 1H NMR titration, binding constants for La complexes; details: 1 M DNO3
Text: Complexation of 1 with lanthanides was further assessed using nuclear magnetic resonance (NMR) spectroscopy. […] As the concentration of La increases (top to bottom), a downfield shift of ˜1.1 ppm occurs in the most downfield aromatic ^1H of 1, confirming complex formation. […] For 1 alone, some heterogeneity and broadening in the peak structure is observed, which can be attributed to aggregate formation. While the ethylene glycol units solubilize 1, the hydrophobic cores still cluster together to form aggregate structures (vide infra). As the La concentration increases, it disrupts these clusters and stabilizes 1-La units. The change in chemical shift of the most downfield aromatic ^1H was used to assess binding constants for La complexes with 1 in 1 M DNO3. The results were fitted using commercial software to yield binding constants of K1>10^2 M^−1 and K2>>10^5 M^−1 for the 1:1 and 2:1 ligand to metal binding modes, respectively. […] In the Lu titration, some downfield shift was observed, but the peaks became increasingly heterogenous and broad. This may be attributed to poor binding affinity where transient interactions occur, but no stable structure was formed, which was consistent with the selectivity data presented above.

[3] = SAXS, radius of gyration of aggregates in solution; format: physicochemical
Protocol: The mesoscale structure of 1 and 1-Pr complexes in the aqueous solution and the local coordination environment around Pr in the 1-Pr structure were investigated using small-angle X-ray scattering (SAXS) and extended X-ray absorption fine structure (EXAFS) spectroscopy at the Pr L3 edge, respectively. In the absence of Pr, 13 mM of 1 in 1 M HNO3 forms large aggregates with a radius of gyration (Rg) of ˜15 A, as represented by the steepest slope in FIG. 5a. The addition of smaller amounts of Pr (2.5 mM) reduces the aggregate size in solution by ˜5 A.
Under conditions where 1 is expected to be fully coordinated with Pr (assuming the formation of [Pr-(1)2(NO3)3], when [Pr]=7.5 mM), the aggregates further reduce in size (Rg=6.7 A). This is consistent with the trends seen in the NMR data above. In addition, variable temperature NMR was taken of 1 without and with Pr. At elevated temperatures (up to 313 K), the spectral quality of 1 degrades dramatically and is irreversible, which is indicative of additional aggregate formation in solution. In the presence of Pr, however, the ^1H chemical shifts representing 1 remain unchanged and the peaks narrow due to increased molecular motion.

[4] = Extraction of 14 Lns from aqueous phase into oil phase
Protocol: (§1) General procedure: a 500 microliter (μL) aqueous phase consisting of 7 mM Ln(III) (0.5 mM of each Ln(III)) in 1 M HNO3 without or with aqBLPhen 1 (3, 13, or 25 mM) was contacted with an equal volume of organic phase containing 0.1 M DGA (3, 4, or 5). The two phases were contacted in a 1:1 ratio of organic/aqueous by end-over-end rotation in individual 1.8 mL capacity snap-top Eppendorf tubes using a rotating wheel in an airbox set at 25.5±0.5° C. Contacts were performed in triplicate with a contact time of 1 hour. The samples were centrifuged at 1811 g for 2 min at room temperature to separate the phases. Each triplicate was then sub-sampled, using a 300 μL aliquot of the aqueous phase transferred to individual polypropylene tubes and diluted with 2% HNO3 for analysis using ICP-MS or ICP-OES. Two samples of the initial lanthanide solution were similarly prepared.
(§2) The ability of 1 and DGA to separate Lns was evaluated using a two-component, immiscible solvent system: nitric acid (aqueous phase containing 1) and n-dodecane with 10 vol % 1-octanol (oil phase containing DGA). The amount of Ln partitioned from the aqueous phase into the oil phase was measured using inductively coupled plasma optical emission spectroscopy or mass spectrometry. The Ln concentration in each phase was then used to calculate the separation efficiency.
(§3) The percentage of Lns in the aqueous and the oil phases is presented in FIGS. 1a-1i. for each DGA in the absence and presence of the aqueous complexant 1 (E=([Ln1]/[Ln1]0)×100%). The distribution ratios (i.e., D=[Ln1]org/[Ln1]aq) for select Lns are listed in Table 1, which also include selectivities (i.e., SFLn1/Ln2=DLn1/DLn2), for several Ln pairs. An efficient separation of Lns was achieved when DLn1>1 and DLn2<1 or ELn1>50% and ELn2<50%. […] Neither of the three DGAs can separate Lns in a single extraction stage.

[5] = Solvent extraction of Lns, distribution ratio of La; details: 1 M HNO3, 1 h
Protocol: as §1, §2, §3

[6] = Solvent extraction of Lns, distribution ratio of Nd; details: 0.1 M DGA, 1 M HNO3, 1 h
Protocol: as §1, §2, §3

[7] = Solvent extraction of Lns, distribution ratio of Sm; details: 0.1 M DGA, 1 M HNO3, 1 h
Protocol: as §1, §2, §3

[8] = Solvent extraction of Lns, distribution ratio of Gd; details: 0.1 M DGA, 1 M HNO3, 1 h
Protocol: as §1, §2, §3

[9] = Solvent extraction of Lns, separation factor Nd/Pr; details: 0.1 M DGA, 1 M HNO3, 1 h
Protocol: as §1, §2, §3

[10] = Solvent extraction of Lns, separation factor Sm/Nd; details: 0.1 M DGA, 1 M HNO3, 1 h
Protocol: as §1, §2, §3

[11] = Solvent extraction of Lns, separation factor Tb/Gd; details: 0.1 M DGA, 1 M HNO3, 1 h
Protocol: as §1, §2, §3

[12] = Solvent extraction of Lns, separation factor Dy/Nd; details: 0.1 M DGA, 1 M HNO3, 1 h
Protocol: as §1, §2, §3

[13] = Solvent extraction of Lns, separation factor Gd/La; details: 0.1 M DGA, 1 M HNO3, 1 h
Protocol: as §1, §2, §3

[14] = [1] 0 mM, 0.1 M DGA in n-dodecane with 10 vol % 1-octanol, 0.5 mM each Ln

CCCCC(CC)COP(=O)(O)CC(CC)CCCC (stereo not shown) [EHEHPA, 2-ethylhexylphosphonic acid mono-(2-ethylhexyl) ester]
selectivity for Nd over Pr [1]: 1.17

O=c1[nH]c(COCCO)c(COCCO)c2cc3ccc4cc5c(COCCO)c(COCCO)[nH]c(=O)c5nc4c3nc12 [Ligand 1, 3,4,9,10-tetrakis((2-hydroxyethoxy)methyl)-2,11-dihydrodipyrido[3,4-b:4′,3′-j]1,10 phenanthroline-1,12-dione]
solubility (Solubility; aqueous buffer, in 0.9 M nitric acid (HNO3)): > 200 mM
binding constant K1 (1:1 ligand to metal) [2]: > 10^2 M^−1
binding constant K2 (2:1 ligand to metal) [2]: > 10^5 M^−1
reduction of aggregate size ([3]; 13 mM of 1, Pr 2.5 mM): ~5 A
radius of gyration (Rg) of aggregates ([3]; 13 mM of 1, [Pr]=7.5 mM): 6.7 A
radius of gyration (Rg) of aggregates ([3]; 13 mM of 1 in 1 M HNO3, absence of Pr): ~15 A

O=C(c1ccc2ccc3ccc(C(=O)N(CCOCCO)CCOCCO)nc3c2n1)N(CCOCCO)CCOCCO [Ligand 2]
aqueous solubility (Solubility; aqueous): excellent aqueous solubility
affinity for light lanthanides as aqueous complexant ([4]; 13 mM in aqueous phase, FIG. 2): limited affinity for light lanthanides

CCCCCCCCN(CCCCCCCC)C(=O)COCC(=O)N(CCCCCCCC)CCCCCCCC [Ligand 4, N,N,N′,N′-tetra(n-octyl)diglycolamide]
DLa distribution ratio [5, 14]: 2.52
DLa distribution ratio ([5]; [1] 3 mM, 0.1 M DGA): 0.21
DLa distribution ratio ([5]; [1] 13 mM, 0.1 M DGA): 0.05
DLa distribution ratio ([5]; [1] 25 mM, 0.1 M DGA): 0.05
DNd distribution ratio ([6]; [1] 0 mM): 18.6
DNd distribution ratio ([6]; [1] 3 mM): 2.18
DNd distribution ratio ([6]; [1] 13 mM): 0.15
DNd distribution ratio ([6]; [1] 25 mM): 0.14
DSm distribution ratio ([7]; [1] 0 mM): 120
DSm distribution ratio ([7]; [1] 3 mM): 28.1
DSm distribution ratio ([7]; [1] 13 mM): 2.35
DSm distribution ratio ([7]; [1] 25 mM): 1.82
DGd distribution ratio ([8]; [1] 0 mM): 386
DGd distribution ratio ([8]; [1] 3 mM): 164
DGd distribution ratio ([8]; [1] 13 mM): 19.3
DGd distribution ratio ([8]; [1] 25 mM): 14.2
SFNd/Pr separation factor ([9]; [1] 0 mM): 2.2
SFNd/Pr separation factor ([9]; [1] 3 mM): 2.7
SFNd/Pr separation factor ([9]; [1] 13 mM): 2.2
SFNd/Pr separation factor ([9]; [1] 25 mM): 1.8
SFSm/Nd separation factor ([10]; [1] 0 mM): 6.4
SFSm/Nd separation factor ([10]; [1] 3 mM): 13
SFSm/Nd separation factor ([10]; [1] 13 mM): 16
SFSm/Nd separation factor ([10]; [1] 25 mM): 13
SFTb/Gd separation factor ([11]; [1] 0 mM): 2.7
SFTb/Gd separation factor ([11]; [1] 3 mM): 3.4
SFTb/Gd separation factor ([11]; [1] 13 mM): 5.4
SFTb/Gd separation factor ([11]; [1] 25 mM): 5.3
SFDy/Nd separation factor ([12]; [1] 0 mM): 70
SFDy/Nd separation factor ([12]; [1] 3 mM): 408
SFDy/Nd separation factor ([12]; [1] 13 mM): 1052
SFDy/Nd separation factor ([12]; [1] 25 mM): 782
SFGd/La separation factor ([13]; [1] 0 mM): 153
SFGd/La separation factor ([13]; [1] 3 mM): 783
SFGd/La separation factor ([13]; [1] 13 mM): 413
SFGd/La separation factor ([13]; [1] 25 mM): 308
extraction of Lns from the aqueous phase into the oil phase ([4]; 0.1 M DGA alone, 14 Lns 0.5 mM each, 1 M HNO3): reduced affinity for light Lns

CCCCCCCCCCCCN(CCCCCCCCCCCC)C(=O)COC1CCCN(CCCCCC)C1=O (stereo not shown) [Ligand 5, N,N-didodecyl-2-((1-hexyl-2-oxopiperidin-3-yl)oxy)acetamide]
DLa distribution ratio [5, 14]: 0.18
DLa distribution ratio ([5]; [1] 3 mM, 0.1 M DGA): 0.12
DLa distribution ratio ([5]; [1] 13 mM, 0.1 M DGA): 0.08
DLa distribution ratio ([5]; [1] 25 mM, 0.1 M DGA): 0.06
DNd distribution ratio ([6]; [1] 0 mM): 0.87
DNd distribution ratio ([6]; [1] 3 mM): 0.32
DNd distribution ratio ([6]; [1] 13 mM): 0.08
DNd distribution ratio ([6]; [1] 25 mM): 0.07
DSm distribution ratio ([7]; [1] 0 mM): 6.21
DSm distribution ratio ([7]; [1] 3 mM): 2.53
DSm distribution ratio ([7]; [1] 13 mM): 0.16
DSm distribution ratio ([7]; [1] 25 mM): 0.17
DGd distribution ratio ([8]; [1] 0 mM): 23.0
DGd distribution ratio ([8]; [1] 3 mM): 13.4
DGd distribution ratio ([8]; [1] 13 mM): 0.98
DGd distribution ratio ([8]; [1] 25 mM): 0.88
SFNd/Pr separation factor ([9]; [1] 0 mM): 2.0
SFNd/Pr separation factor ([9]; [1] 3 mM): 1.8
SFNd/Pr separation factor ([9]; [1] 13 mM): 0.9
SFNd/Pr separation factor ([9]; [1] 25 mM): 1.0
SFSm/Nd separation factor ([10]; [1] 0 mM): 7.2
SFSm/Nd separation factor ([10]; [1] 3 mM): 8.0
SFSm/Nd separation factor ([10]; [1] 13 mM): 2.0
SFSm/Nd separation factor ([10]; [1] 25 mM): 2.5
SFTb/Gd separation factor ([11]; [1] 0 mM): 3.3
SFTb/Gd separation factor ([11]; [1] 3 mM): 3.7
SFTb/Gd separation factor ([11]; [1] 13 mM): 5.1
SFTb/Gd separation factor ([11]; [1] 25 mM): 5.8
SFDy/Nd separation factor ([12]; [1] 0 mM): 130
SFDy/Nd separation factor ([12]; [1] 3 mM): 260
SFDy/Nd separation factor ([12]; [1] 13 mM): 133
SFDy/Nd separation factor ([12]; [1] 25 mM): 123
SFGd/La separation factor ([13]; [1] 0 mM): 128
SFGd/La separation factor ([13]; [1] 3 mM): 109
SFGd/La separation factor ([13]; [1] 13 mM): 12
SFGd/La separation factor ([13]; [1] 25 mM): 14
